{"source": "patent US20250154219A1", "about": "“PEPTIDE ANALOGS” (Adepthera LLC, priority 2017, published 2025)", "format_in_all_cases": "cell-based", "key": {"CLR/RAMP2 receptor [1]": {"molecular_target": "T1, CLR/RAMP2 receptor (Homo sapiens, UniProt O60895+Q16602)", "T1 sequence (Q16602 23-461)": "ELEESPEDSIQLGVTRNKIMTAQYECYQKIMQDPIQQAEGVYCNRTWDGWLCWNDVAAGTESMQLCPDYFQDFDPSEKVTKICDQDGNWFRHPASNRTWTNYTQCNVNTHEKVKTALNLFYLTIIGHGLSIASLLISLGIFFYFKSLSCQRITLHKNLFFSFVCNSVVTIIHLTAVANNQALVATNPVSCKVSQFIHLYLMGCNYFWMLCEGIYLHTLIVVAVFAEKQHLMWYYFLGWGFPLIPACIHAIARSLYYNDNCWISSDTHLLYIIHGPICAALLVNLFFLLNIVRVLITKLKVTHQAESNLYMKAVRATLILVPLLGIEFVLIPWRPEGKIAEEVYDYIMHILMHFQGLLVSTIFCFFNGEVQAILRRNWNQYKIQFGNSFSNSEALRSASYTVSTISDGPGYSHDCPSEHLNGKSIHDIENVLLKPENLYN", "T1 sequence (O60895 43-175)": "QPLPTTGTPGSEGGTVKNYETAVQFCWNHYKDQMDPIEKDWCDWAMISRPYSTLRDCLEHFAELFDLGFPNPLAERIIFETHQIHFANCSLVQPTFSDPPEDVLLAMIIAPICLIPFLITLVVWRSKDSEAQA", "test": "CLR/RAMP2 arrestin receptor-activation assay (agonist mode);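 on all read-outs here: agonist dose-response in recombinant cell lines stably expressing each receptor complex, duplicate wells over 10 threefold dilutions from a top concentration of 1.0 µM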", "settings": "for receptor selectivity of agonists, in words: CLR/RAMP2 versus CLR/RAMP1; for CLR/RAMP2 Max Activity % of positive control: agonist mode, positive control ADM", "method": "(§1) Using a receptor activation assay, the dose-dependent stimulatory response of peptide agonists on a CLR/RAMP1 receptor, a CLR/RAMP2, or a CLR/RAMP3 receptor complex was determined. A cell line carrying the recombinant CLR/RAMP1, CLR/RAMP2, or a CLR/RAMP3 receptor was employed in the assay. Peptide agonist activities were tested, in duplicate, at 10 different concentrations, starting with 1.0 μM and serially diluted 3-fold, in DMSO. […] The CLR/RAMP1 CAMP, CLR/RAMP2 arrestin, and CLR/RAMP3 CAMP assays (DiscoveRx, Fremont, Calif.) were used.\n(§2) The pharmacology of superagonistic activity of synthetic analogs was studied in cells that stably express CLR/RAMP1 (1321N1 cells), CLR/RAMP2 (CHO-K1 cells), or CLR/RAMP3 (CHO-K1 cells) receptors.\nFor the Arrestin assays, PathHunter cell lines (Discoverx Inc.) were expanded from freezer stocks, and seeded in a total volume of 20 μL into white walled, 384-well microplates and incubated at 37 C for the appropriate time prior to testing. For agonist determination, cells were incubated with sample to induce response. […] The microplates were read following signal generation with a PerkinElmer Envision™ instrument for chemiluminescent signal detection.\nThe compound activity was analyzed using a CBIS data analysis suite (ChemInnovation, CA). For agonist mode assays, percentage activity was calculated using the following formula:\n% Activity=100%×(mean RLU of test sample−mean RLU of vehicle control)/(mean MAX control ligand−mean RLU of vehicle control)."}, "CLR/RAMP1 receptor [2]": {"molecular_target": "T2, CLR/RAMP1 receptor (Homo sapiens, UniProt O60894+Q16602)", "T2 sequence (Q16602 23-461)": "as the sequence (Q16602 23-461) above", "T2 sequence (O60894 27-148)": "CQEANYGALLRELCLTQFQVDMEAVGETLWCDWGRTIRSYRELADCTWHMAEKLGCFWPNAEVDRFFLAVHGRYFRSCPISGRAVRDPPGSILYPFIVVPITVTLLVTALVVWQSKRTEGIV", "test": "CLR/RAMP1 cAMP receptor-activation assay (agonist mode);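 on all read-outs here: Dose–response over 10 threefold dilutions from 1.0 µM, run in duplicate, luminescent cAMP detection (RLU), activity scaled between vehicle control (0%) and maximal control (100%)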", "settings": "for CLR/RAMP1 Max Activity % of positive control: agonist mode, positive control β-CGRP", "method": "as §1, §2\nFor the analysis of Gs-coupled CAMP production, cAMP Hunter cell lines were expanded from freezer stocks, and cells were seeded in a total volume of 20 μL into white walled, 384-well microplates and incubated at 37 C for the appropriate time prior to testing. The CAMP modulation was determined using the DiscoverX HitHunter CAMP XS+ assay. For agonistic activity determination, cells were incubated with sample to induce response. Media was aspirated from cells and replaced with 15 μL 2:1 HBSS/10 mM Hepes: CAMP XS+Ab reagent. […] For Gs-coupled agonistic assays, percentage activity is calculated using the following formula: % Activity=100%×(mean RLU of test sample−mean RLU of vehicle control)/(mean RLU of MAX control−mean RLU of vehicle control)."}, "CLR/RAMP2 receptor [3]": {"molecular_target": "T1, CLR/RAMP2 receptor", "test": "CLR/RAMP2 arrestin assay, antagonist mode (ADM-stimulated)", "method": "A cell line carrying the recombinant CLR/RAMP1, CLR/RAMP2, or a CLR/RAMP3 receptor was employed in the assay. Peptide agonist activities were tested, in duplicate, at 10 different concentrations, starting with 1.0 μM and serially diluted 3-fold, in DMSO. […] The CLR/RAMP1 CAMP, CLR/RAMP2 arrestin, and CLR/RAMP3 CAMP assays (DiscoveRx, Fremont, Calif.) were used.\nFor the analysis of antagonistic activity, synthetic analogs were pre-incubated with the cells before adding the reference ligand at its EC80. […] For antagonistic activity determination, cells were pre-incubated with antagonist followed by agonist challenge at the EC80 concentration. […] Then, 5 μL of 6× EC80 agonist in assay buffer was added to the cells and incubated at 37 C or room temperature for 90 or 180 minutes.\nThe microplates were read following signal generation with a PerkinElmer Envision™ instrument for chemiluminescent signal detection.\n% Activity=100%×(mean RLU of test sample−mean RLU of vehicle control)/(mean MAX control ligand−mean RLU of vehicle control). For antagonistic activity assays, percentage inhibition was calculated using the following formula: % Inhibition=100%×(1−(mean RLU of test sample−mean RLU of vehicle control)/(mean RLU of EC80 control−mean RLU of vehicle control))."}, "CLR/RAMP1 receptor [4]": {"molecular_target": "T2, CLR/RAMP1 receptor", "test": "CLR/RAMP1 cAMP assay, antagonist mode (CGRP-stimulated)", "settings": "for CLR/RAMP1 Max Activity % of positive control (antagonist): antagonist mode; for receptor selectivity of antagonists, in words: CLR/RAMP1 versus CLR/RAMP2", "method": "A cell line carrying the recombinant CLR/RAMP1, CLR/RAMP2, or a CLR/RAMP3 receptor was employed in the assay. […] The CLR/RAMP1 CAMP, CLR/RAMP2 arrestin, and CLR/RAMP3 CAMP assays (DiscoveRx, Fremont, Calif.) were used.\nFor the analysis of antagonistic activity, synthetic analogs were pre-incubated with the cells before adding the reference ligand at its EC80. […] For the determination of antagonistic activity, cells were pre-incubated with sample followed by agonist challenge at the EC80 concentration. […] After appropriate compound incubation, assay signal was generated through incubation with 20 μL cAMP XS+ED/CL lysis cocktail for one hour followed by incubation with 20 μL cAMP XS+EA reagent for three hours at room temperature. Microplates were read following signal generation with a PerkinElmer Envision™ instrument for chemiluminescent signal detection.\nFor the antagonistic activity assay, percentage inhibition is calculated using the following formula: % Inhibition=100%×(1−(mean RLU of test sample−mean RLU of vehicle control)/(mean RLU of EC80 control−mean RLU of vehicle control))."}}}
{"substance": "miniPEG-K(PAL)GCRFGTCTVQKLAHQIYQFTDKDKDNVDPSSPHSY-NH2 [SEQ ID NO: 94]", "values": [{"measurement": "receptor selectivity of agonists, in words", "setting": "CLR/RAMP2 receptor [1]", "result": "CLR/RAMP2-selective"}, {"measurement": "CLR/RAMP2 Max Activity % of positive control", "setting": "CLR/RAMP2 receptor [1]", "result": "82 % of positive control"}, {"measurement": "CLR/RAMP1 Max Activity % of positive control", "setting": "CLR/RAMP1 receptor [2]", "result": "67 % of positive control"}]}
{"substance": "miniPEG-K(PAL)GCRFGTCTVQKLAHQIYQFTDKDKSAPVDPSSPHSY-NH2 [SEQ ID NO: 47]", "values": [{"measurement": "CLR/RAMP2 Max Activity % of positive control", "setting": "CLR/RAMP2 receptor [1]", "result": "64 % of positive control"}, {"measurement": "CLR/RAMP1 Max Activity % of positive control", "setting": "CLR/RAMP1 receptor [2]", "result": "85 % of positive control"}]}
{"substance": "miniPEG-K(PAL)GCRFGTCTVQKLAHQIYQFTDKGRQDSAPVDPSSPHSY-NH2 [SEQ ID NO: 68]", "values": [{"measurement": "CLR/RAMP2 Max Activity % of positive control", "setting": "CLR/RAMP2 receptor [1]", "result": "70 % of positive control"}]}
{"substance": "Ace-PEG12-PEG12-K([19-carboxy-nonadecanoyl]-isoGlu-PEG3)GCRFGTCTVQKLAHQIYQFTDKDKDNVAPRSKISPQGY-NH2 [SEQ ID NO: 150]", "values": [{"measurement": "CLR/RAMP2 Max Activity % of positive control", "setting": "CLR/RAMP2 receptor [1]", "result": "60 % of positive control"}, {"measurement": "CLR/RAMP1 Max Activity % of positive control", "setting": "CLR/RAMP1 receptor [2]", "result": "94 % of positive control"}]}
{"substance": "Ace-PEG3-K(Hexadecanoyl-isoGlu-PEG3-PEG3)GCRFGTCTVQKLAHQIYQFTDKDKDNVAPRSKISPQGY-NH2 [SEQ ID NO: 153]", "values": [{"measurement": "CLR/RAMP2 Max Activity % of positive control", "setting": "CLR/RAMP2 receptor [1]", "result": "108 % of positive control"}, {"measurement": "CLR/RAMP1 Max Activity % of positive control", "setting": "CLR/RAMP1 receptor [2]", "result": "78 % of positive control"}]}
{"substance": "PEG20,000-K[PAL]VQKLAHQIYQFTDKDSAPVDPSSPHSY-NH2 [SEQ ID NO: 190]", "values": [{"measurement": "CLR/RAMP2 Max Activity % of positive control (antagonist)", "setting": "CLR/RAMP2 receptor [3]", "result": "51 % of positive control"}, {"measurement": "CLR/RAMP1 Max Activity % of positive control (antagonist)", "setting": "CLR/RAMP1 receptor [4]", "result": "104 % of positive control"}]}
{"substance": "Ace-FGCRFGTCTVQKLAHQIYQFTDKDKDNVAPRSKISPQGY-NH2 [SEQ ID NO: 53, reference compound]", "values": [{"measurement": "CLR/RAMP2 Max Activity % of positive control", "setting": "CLR/RAMP2 receptor [1]", "result": "102 % of positive control"}, {"measurement": "agonistic potency for CLR/RAMP1 and/or CLR/RAMP2 receptors, in words", "setting": "CLR/RAMP1 receptor [2]; CLR/RAMP1 and/or CLR/RAMP2", "result": "low potency ligands"}, {"measurement": "CLR/RAMP1 Max Activity % of positive control", "setting": "CLR/RAMP1 receptor [2]", "result": "69 % of positive control"}]}
{"substance": "Pal-KVQKLNFVPTNVGSKAF-NH2 [SEQ ID NO: 142]", "values": [{"measurement": "CLR/RAMP2 Max Activity % of positive control (antagonist)", "setting": "CLR/RAMP2 receptor [3]", "result": "80 % of positive control"}, {"measurement": "CLR/RAMP1 Max Activity % of positive control (antagonist)", "setting": "CLR/RAMP1 receptor [4]", "result": "100 % of positive control"}]}
{"substance": "Pyr(glu)-LYENKPRRPYIL-miniPEG-K(PAL)GCRFGTCTVQKLAHQIYQFTDKDVAPRSKISPQGY-NH2 [SEQ ID NO: 223]", "values": [{"measurement": "CLR/RAMP2 Max Activity % of positive control", "setting": "CLR/RAMP2 receptor [1]", "result": "70 % of positive control"}, {"measurement": "CLR/RAMP1 Max Activity % of positive control", "setting": "CLR/RAMP1 receptor [2]", "result": "102 % of positive control"}]}
{"substance": "miniPEG-TK(Pal)KTLRTGCRFGTCTVQKLAHQIYQFTDKDKDNVAPVDPSSPHSY-NH2 [SEQ ID NO: 42]", "values": [{"measurement": "CLR/RAMP2 Max Activity % of positive control", "setting": "CLR/RAMP2 receptor [1]", "result": "76 % of positive control"}, {"measurement": "CLR/RAMP1 Max Activity % of positive control", "setting": "CLR/RAMP1 receptor [2]", "result": "56 % of positive control"}]}
{"substance": "miniPEG-K(PAL)GCRFGTCT(D-Val)QKLAHQIYQFTDKDVAPRSKISPQGY-NH2 [SEQ ID NO: 211]", "values": [{"measurement": "receptor selectivity of agonists, in words", "setting": "CLR/RAMP2 receptor [1]", "result": "CLR/RAMP2-selective"}, {"measurement": "CLR/RAMP2 Max Activity % of positive control", "setting": "CLR/RAMP2 receptor [1]", "result": "22 % of positive control"}, {"measurement": "CLR/RAMP1 Max Activity % of positive control", "setting": "CLR/RAMP1 receptor [2]", "result": "91 % of positive control"}]}
{"substance": "miniPEG-K(PAL)VQKLSAPVDPSSPHSY-NH2 [SEQ ID NO: 140]", "values": [{"measurement": "CLR/RAMP2 Max Activity % of positive control (antagonist)", "setting": "CLR/RAMP2 receptor [3]", "result": "90 % of positive control"}, {"measurement": "receptor selectivity of antagonists, in words", "setting": "CLR/RAMP1 receptor [4]", "result": "CLR/RAMP1-selective"}, {"measurement": "CLR/RAMP1 Max Activity % of positive control (antagonist)", "setting": "CLR/RAMP1 receptor [4]", "result": "100 % of positive control"}]}
{"substance": "miniPEG-K(PAL)GCRFGTCTVQKLAHQIYQFTDKDKQDSAPVDPSSPHSY-NH2 [SEQ ID NO: 51]", "values": [{"measurement": "CLR/RAMP2 Max Activity % of positive control", "setting": "CLR/RAMP2 receptor [1]", "result": "107 % of positive control"}, {"measurement": "CLR/RAMP1 Max Activity % of positive control", "setting": "CLR/RAMP1 receptor [2]", "result": "65 % of positive control"}]}
{"substance": "miniPEG-K(PAL)GCRFGTCTVQKLAHQIYQFTDKDKDNVAPRSKSSPHSY-NH2 [SEQ ID NO: 61]", "values": [{"measurement": "CLR/RAMP2 Max Activity % of positive control", "setting": "CLR/RAMP2 receptor [1]", "result": "92 % of positive control"}, {"measurement": "CLR/RAMP1 Max Activity % of positive control", "setting": "CLR/RAMP1 receptor [2]", "result": "70 % of positive control"}]}
{"substance": "Ace-YNWNSFGLRF-miniPEG-K(PAL)VQKLAHQIYQFTDKDVAPRSKISPQGY-NH2 [SEQ ID NO: 148]", "values": [{"measurement": "CLR/RAMP2 Max Activity % of positive control (antagonist)", "setting": "CLR/RAMP2 receptor [3]", "result": "97 % of positive control"}, {"measurement": "receptor selectivity of antagonists, in words", "setting": "CLR/RAMP1 receptor [4]", "result": "pan-specific"}, {"measurement": "CLR/RAMP1 Max Activity % of positive control (antagonist)", "setting": "CLR/RAMP1 receptor [4]", "result": "100 % of positive control"}]}
{"substance": "miniPEG-K(PAL)GCRFGTCTVQKLAHQIYQFTDKDKDSAPVDPSSPHSY-NH2 [SEQ ID NO: 46]", "values": [{"measurement": "CLR/RAMP2 Max Activity % of positive control", "setting": "CLR/RAMP2 receptor [1]", "result": "104 % of positive control"}, {"measurement": "CLR/RAMP1 Max Activity % of positive control", "setting": "CLR/RAMP1 receptor [2]", "result": "60 % of positive control"}]}
{"substance": "Ace-PEG3-K(Hexadecanoyl-isoGlu-PEG3)GCRFGTCTVQKLAHQIYQFTDKDKDNVAPRSKISPQGY-NH2 [SEQ ID NO: 152]", "values": [{"measurement": "CLR/RAMP2 Max Activity % of positive control", "setting": "CLR/RAMP2 receptor [1]", "result": "132 % of positive control"}, {"measurement": "CLR/RAMP1 Max Activity % of positive control", "setting": "CLR/RAMP1 receptor [2]", "result": "80 % of positive control"}]}
